{
  "source": "patent US20210346385A1",
  "about": "“TASTE-MASKED DOSAGE FORMS” (MSB Holdings, Inc, priority 2018, published 2021)",
  "assay": "Dissolving time of the troche",
  "type": "physicochemical",
  "key": {"[1]": {"conditions": "ingredient in troche of Example 4j"}, "[2]": {"conditions": "ingredient in troche of Example 4k"}, "[3]": {"conditions": "ingredient in troche of Example 4l"}, "[4]": {"conditions": "ingredient in troche of Example 4m"}, "[5]": {"conditions": "ingredient in troche of Example 4n"}, "[6]": {"conditions": "ingredient in troche of Example 4o (ButterCream)"}, "[7]": {"conditions": "ingredient in troche of Example 4o (Vanilla, Marshmallow)"}, "[8]": {"conditions": "ingredient in troche of Example 4p"}, "[9]": {"conditions": "ingredient in troche of Example 42"}, "[10]": {"conditions": "ingredient in troche of Example 4h"}, "[11]": {"conditions": "ingredient in troche of Example 4c, troche with silica, acacia and Winterfresh"}, "[12]": {"conditions": "ingredient in troche of Example 4f"}, "[13]": {"conditions": "ingredient in troche of Example 4i"}, "[14]": {"conditions": "ingredient in troche of Example 4d, troche with Alpha agent, silica, acacia, cherry"}},
  "data": [
    {"compound": "C=C1C[C@@]23CC[C@H]4[C@@](C)(CCC[C@@]4(C)C(=O)O)[C@@H]2CC[C@]1(O)C3", "note": "[Steviol]", "values": [
      {"measurement": "Dissolving time: remark for the single ingredient", "setting": "[1]", "value": "No effect"},
      {"measurement": "Dissolving time: remark for the single ingredient", "setting": "[2]", "value": "No effect"},
      {"measurement": "Dissolving time: remark for the single ingredient", "setting": "[3]", "value": "No effect"},
      {"measurement": "Dissolving time: remark for the single ingredient", "setting": "[4]", "value": "No effect"},
      {"measurement": "Dissolving time: remark for the single ingredient", "setting": "[5]", "value": "No effect"},
      {"measurement": "Dissolving time: remark for the single ingredient", "setting": "[6]", "value": "No effect"},
      {"measurement": "Dissolving time: remark for the single ingredient", "setting": "[7]", "value": "No effect"},
      {"measurement": "Dissolving time: remark for the single ingredient", "setting": "[8]", "value": "No effect"},
      {"measurement": "Dissolving time: remark for the single ingredient", "setting": "[9]", "value": "No effect"},
      {"measurement": "Dissolving time: remark for the single ingredient", "setting": "[10]", "value": "No effect"}
    ]},
    {"compound": "CCCc1nn(C)c2c(=O)[nH]c(-c3cc(S(=O)(=O)N4CCN(C)CC4)ccc3OCC)nc12", "note": "[Sildenafil, reference compound]", "values": [
      {"measurement": "Dissolving time: remark for the single ingredient", "setting": "[11]", "value": "No effect"},
      {"measurement": "Dissolving time: remark for the single ingredient", "setting": "ingredient in troche of Example 4e", "value": "No effect"},
      {"measurement": "Dissolving time: remark for the single ingredient", "setting": "[12]", "value": "No effect"},
      {"measurement": "Dissolving time: remark for the single ingredient", "setting": "[13]", "value": "No effect"},
      {"measurement": "Dissolving time: remark for the single ingredient", "setting": "[1]", "value": "No effect"},
      {"measurement": "Dissolving time: remark for the single ingredient", "setting": "[2]", "value": "No effect"},
      {"measurement": "Dissolving time: remark for the single ingredient", "setting": "[3]", "value": "No effect"},
      {"measurement": "Dissolving time: remark for the single ingredient", "setting": "[4]", "value": "No effect"},
      {"measurement": "Dissolving time: remark for the single ingredient", "setting": "[5]", "value": "No effect"},
      {"measurement": "Dissolving time: remark for the single ingredient", "setting": "[6]", "value": "No effect"},
      {"measurement": "Dissolving time: remark for the single ingredient", "setting": "[7]", "value": "No effect"},
      {"measurement": "Dissolving time: remark for the single ingredient", "setting": "[8]", "value": "No effect"},
      {"measurement": "Dissolving time: remark for the single ingredient", "setting": "[9]", "value": "No effect"},
      {"measurement": "Dissolving time: remark for the single ingredient", "setting": "[10]", "value": "No effect"},
      {"measurement": "Dissolving time: remark for the single ingredient", "setting": "[14]", "value": "No effect"}
    ]},
    {"compound": "CC1=CC(=O)NS(=O)(=O)O1", "note": "[Acesulfame]", "values": [
      {"measurement": "Dissolving time: remark for the single ingredient", "setting": "[12]", "value": "No effect"},
      {"measurement": "Dissolving time: remark for the single ingredient", "setting": "[13]", "value": "No effect"},
      {"measurement": "Dissolving time: remark for the single ingredient", "setting": "[1]", "value": "No effect"},
      {"measurement": "Dissolving time: remark for the single ingredient", "setting": "[2]", "value": "No effect"},
      {"measurement": "Dissolving time: remark for the single ingredient", "setting": "[3]", "value": "No effect"},
      {"measurement": "Dissolving time: remark for the single ingredient", "setting": "[4]", "value": "No effect"},
      {"measurement": "Dissolving time: remark for the single ingredient", "setting": "[5]", "value": "No effect"},
      {"measurement": "Dissolving time: remark for the single ingredient", "setting": "[6]", "value": "No effect"},
      {"measurement": "Dissolving time: remark for the single ingredient", "setting": "[7]", "value": "No effect"},
      {"measurement": "Dissolving time: remark for the single ingredient", "setting": "[8]", "value": "No effect"}
    ]},
    {"compound": "Sugar", "values": [
      {"measurement": "Dissolving time: remark for the single ingredient", "setting": "ingredient in troche of Example 4b", "value": "Did Not Help"},
      {"measurement": "Dissolving time: remark for the single ingredient", "setting": "[11]", "value": "Did Not Help"},
      {"measurement": "Dissolving time: remark for the single ingredient", "setting": "[14]", "value": "No effect"}
    ]}
  ]
}
